# Results reported in ChEMBL document CHEMBL5257022, “An integrated overview on pyrrolizines as potential anti-inflammatory, analgesic and antipyretic agents” (Eur J Med Chem, 2016).
# Key:
# Rattus norvegicus [1] = assay: Antiinflammatory activity against carrageenan-induced paw edema in Wistar rat assessed as inhibition of edema at 30 mg/kg, po for 1 hr prior to carrageenan induction; type: functional
# Mus musculus [2] = assay: Analgesic activity in ddY mouse assessed as inhibition of acetic acid induced writhing at 30 mg/kg, po for 30 mins followed by acetic acid injection and measured after 5 to 10 mins; type: functional; design: scale not given: the % may be the effect or the level left; conditions: time 35-40 min
# [3] = target: T1, Polyunsaturated fatty acid 5-lipoxygenase (Homo sapiens) (UniProt P09917); assay: Inhibition of 5-LOX in human PMNL at 10 uM relative to control; type: cell-based
# T1 sequence (whole entry): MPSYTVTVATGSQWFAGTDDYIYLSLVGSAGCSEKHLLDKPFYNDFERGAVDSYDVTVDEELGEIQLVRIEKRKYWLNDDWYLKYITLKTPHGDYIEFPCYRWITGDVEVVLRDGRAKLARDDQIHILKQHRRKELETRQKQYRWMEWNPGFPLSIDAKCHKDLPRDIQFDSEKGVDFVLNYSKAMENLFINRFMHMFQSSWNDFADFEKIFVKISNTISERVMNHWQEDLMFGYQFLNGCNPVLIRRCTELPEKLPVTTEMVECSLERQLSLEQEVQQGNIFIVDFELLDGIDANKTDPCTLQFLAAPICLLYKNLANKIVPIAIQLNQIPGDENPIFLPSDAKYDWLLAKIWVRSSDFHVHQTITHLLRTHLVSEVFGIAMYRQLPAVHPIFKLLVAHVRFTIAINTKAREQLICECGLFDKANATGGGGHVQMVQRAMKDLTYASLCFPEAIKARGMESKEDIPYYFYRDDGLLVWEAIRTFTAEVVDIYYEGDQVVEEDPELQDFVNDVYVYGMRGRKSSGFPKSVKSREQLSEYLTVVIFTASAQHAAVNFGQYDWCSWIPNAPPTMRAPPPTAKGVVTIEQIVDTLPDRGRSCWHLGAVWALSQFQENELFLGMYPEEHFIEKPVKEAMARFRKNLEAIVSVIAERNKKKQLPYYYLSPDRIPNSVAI
# [4] = target: T2, Prostaglandin G/H synthase 1 (Bos taurus) (UniProt O62664); assay: Inhibition of COX1 in bovine thrombocyte at 10 uM relative to control
# T2 sequence (whole entry): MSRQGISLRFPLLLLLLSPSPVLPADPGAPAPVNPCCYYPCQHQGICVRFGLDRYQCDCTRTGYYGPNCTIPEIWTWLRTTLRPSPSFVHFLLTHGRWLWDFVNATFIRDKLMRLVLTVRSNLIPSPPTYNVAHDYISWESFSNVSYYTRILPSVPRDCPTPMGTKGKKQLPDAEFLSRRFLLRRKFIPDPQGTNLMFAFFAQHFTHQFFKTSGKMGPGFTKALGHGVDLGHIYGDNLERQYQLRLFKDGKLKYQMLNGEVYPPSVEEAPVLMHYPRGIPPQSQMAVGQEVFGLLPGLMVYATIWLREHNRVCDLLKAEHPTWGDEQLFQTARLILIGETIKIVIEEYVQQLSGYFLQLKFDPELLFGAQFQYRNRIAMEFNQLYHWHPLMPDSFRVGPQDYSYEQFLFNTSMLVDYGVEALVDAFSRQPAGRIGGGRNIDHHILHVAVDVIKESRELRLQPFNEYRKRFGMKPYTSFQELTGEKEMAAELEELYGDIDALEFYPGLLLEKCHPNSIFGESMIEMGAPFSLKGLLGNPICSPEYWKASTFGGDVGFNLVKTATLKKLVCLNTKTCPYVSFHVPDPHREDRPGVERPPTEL
# Rattus norvegicus [5] = assay: Antiinflammatory activity in carrageenan induced Sprague-Dawley rat assessed as reduction in edema formation after 3 hrs; type: functional; conditions: read-out: ID50 (the source's name)
# [6] = target: T3, Prostaglandin G/H synthase 1 (Homo sapiens, UniProt P23219); assay: Inhibition of human COX1
# T3 sequence (P23219 whole entry): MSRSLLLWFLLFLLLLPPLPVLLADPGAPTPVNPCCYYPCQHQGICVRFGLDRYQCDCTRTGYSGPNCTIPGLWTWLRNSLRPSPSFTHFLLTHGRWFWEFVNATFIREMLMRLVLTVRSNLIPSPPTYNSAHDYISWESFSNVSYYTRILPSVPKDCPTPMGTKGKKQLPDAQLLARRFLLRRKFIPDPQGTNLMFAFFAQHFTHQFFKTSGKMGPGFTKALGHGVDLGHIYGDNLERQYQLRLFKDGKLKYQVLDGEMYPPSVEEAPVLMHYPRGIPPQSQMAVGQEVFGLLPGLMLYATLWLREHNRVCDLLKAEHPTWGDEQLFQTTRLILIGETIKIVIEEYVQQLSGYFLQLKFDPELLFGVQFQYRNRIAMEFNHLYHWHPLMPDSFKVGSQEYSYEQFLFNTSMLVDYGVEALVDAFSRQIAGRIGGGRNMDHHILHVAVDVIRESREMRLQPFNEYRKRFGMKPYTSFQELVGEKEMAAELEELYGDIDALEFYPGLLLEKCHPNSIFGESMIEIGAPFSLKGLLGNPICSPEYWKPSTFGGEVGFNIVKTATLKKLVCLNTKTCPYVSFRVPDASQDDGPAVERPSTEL
# [7] = target: T4, Prostaglandin G/H synthase 2 (Homo sapiens, UniProt P35354); assay: Inhibition of human COX2
# T4 sequence (P35354 whole entry): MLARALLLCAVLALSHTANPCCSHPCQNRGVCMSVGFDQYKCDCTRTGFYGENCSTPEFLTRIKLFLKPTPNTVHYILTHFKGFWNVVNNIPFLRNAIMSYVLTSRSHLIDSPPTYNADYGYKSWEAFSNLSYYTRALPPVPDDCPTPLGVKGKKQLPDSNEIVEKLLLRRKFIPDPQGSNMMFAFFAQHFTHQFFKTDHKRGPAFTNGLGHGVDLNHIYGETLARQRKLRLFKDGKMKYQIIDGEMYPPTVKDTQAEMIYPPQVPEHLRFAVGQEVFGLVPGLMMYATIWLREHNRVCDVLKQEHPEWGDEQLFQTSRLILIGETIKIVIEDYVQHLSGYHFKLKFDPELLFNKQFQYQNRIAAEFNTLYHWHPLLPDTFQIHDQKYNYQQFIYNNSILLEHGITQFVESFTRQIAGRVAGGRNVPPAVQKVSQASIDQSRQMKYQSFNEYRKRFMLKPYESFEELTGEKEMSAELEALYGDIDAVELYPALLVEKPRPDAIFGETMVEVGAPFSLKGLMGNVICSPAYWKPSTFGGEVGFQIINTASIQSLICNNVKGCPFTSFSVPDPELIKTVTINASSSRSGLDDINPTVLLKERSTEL
# Mus musculus [8] = species: Mus musculus; assay: Analgesic activity in mouse assessed as inhibition of acetic acid-induced writhing response relative to aspirin; type: functional
# Rattus norvegicus [9] = assay: Antiinflammatory activity in rat assessed as fold change in inhibition of paw edema relative to phenylbutazone; type: functional
# [10] = target: T5, Polyunsaturated fatty acid 5-lipoxygenase (Homo sapiens, UniProt P09917); assay: Inhibition of 5-LOX (unknown origin)
# T5 sequence (P09917 whole entry): T1 sequence (whole entry)
# [11] = Toxicity in gastric mucosa of rat assessed as ulcer index at 200 mg/kg; type: organism-based; conditions: in vivo
# Oryctolagus cuniculus = species: Oryctolagus cuniculus; assay: Inhibition of collagen-induced platelet aggregation in rabbit concha artery blood at 10 uM; type: functional
# [12] = target: T4, Prostaglandin G/H synthase 2; assay: Inhibition of COX2 (unknown origin)
# [13] = Gastrointestinal toxicity in rat assessed as ulcer index at 20 mg/kg, po; type: organism-based; conditions: in vivo
# Rattus norvegicus [14] = assay: Antiinflammatory activity in rat assessed as inhibition of paw edema; type: functional
# [15] = target: T3, Prostaglandin G/H synthase 1; assay: Inhibition of COX1 (unknown origin)
# [16] = Toxicity in gastric mucosa of rat assessed as ulcer index at 10 mg/kg; type: organism-based; conditions: in vivo
# [17] = Toxicity in gastric mucosa of rat assessed as ulcer index at 400 mg/kg; type: organism-based; conditions: in vivo
# [18] = Drug excretion in human urine assessed as glucuronide conjugate level; type: ADME
# [19] = Drug excretion in human urine assessed as keto ro lac level; type: ADME
# [20] = Drug excretion in human urine assessed as 4-hydroxy keto ro lac level; type: ADME
smiles,measurement,setting,value
COc1ccc(-c2c(-c3ccc(Cl)cc3)cc3n2CCC3C(=O)O)cc1 (configuration not stated),inhibition in vivo at 30 mg/kg,Rattus norvegicus [1],48.2%
same,Activity,Mus musculus [2],87.3%
CS(=O)(=O)Nc1ccc(-c2cn3c(c2-c2ccc(Cl)cc2)CCC3)cc1,IP,[3],0%
same,IP,[4],0%
O=C(c1ccccc1)c1ccc2n1CC[C@@H]2C(=O)O,ED50,Rattus norvegicus [5],0.02 mg/kg
same,IC50,[6],0.46 µM
same,IC50,[7],1.46 µM
O=C(c1ccccc1)c1ccc2n1CCC2C(=O)O (racemic) [KETOROLAC],ED50,Rattus norvegicus [5],0.08 mg/kg
same,IC50,[6],1.23 µM
same,fold change (FC),Mus musculus [8],350
same,fold change (FC),Rattus norvegicus [9],36
same,IC50,[7],3.5 µM
c1ccc(-c2c(-c3cccs3)cn3c2CCC3)cc1,IC50,[10],10 µM
CC(C)Cc1ccc(C(C)C(=O)O)cc1 (configuration not stated) [IBUPROFEN],UI,[11],13.3
O=C(Nc1ccccc1)C1CCn2c1cc(-c1ccc(Cl)cc1)c2-c1ccc(Cl)cc1 (configuration not stated),inhibition in vivo at 30 mg/kg,Rattus norvegicus [1],37.4%
same,inhibition at 10 µM,Oryctolagus cuniculus,78%
CSc1ccc(-c2cn3c(c2-c2ccc(F)cc2)CCC3)cc1,IP,[3],0%
same,IC50,[12],0.1 µM
same,IP,[4],28%
Cc1ccccc1NC(=O)c1c2[nH]cnc(=O)c2c2n1CCC2,UI,[13],17.4
same,inhibition (INH),Rattus norvegicus [14],28.8%
O=C(O)/C=C/c1c(-c2ccc(CCc3ccccc3)cc2)c(-c2ccccc2)c2n1CCC2,IC50,[15],10 µM
same,IP,[4],58%
O=C(Nc1ccccc1Cl)c1c2[nH]cnc(=O)c2c2n1CCC2,UI,[13],15.1
same,inhibition (INH),Rattus norvegicus [14],30.3%
O=C(O)C1CCn2c1cc(-c1ccc(Cl)cc1)c2-c1ccc(Cl)cc1 (configuration not stated),inhibition in vivo at 30 mg/kg,Rattus norvegicus [1],52.3%
same,Activity,Mus musculus [2],81.3%
N#Cc1c(N)c(C(=O)Nc2ccccc2Cl)n2c1CCC2,UI,[13],9.2
same,inhibition (INH),Rattus norvegicus [14],36.1%
CS(=O)(=O)c1ccc(-c2cn3c(c2-c2ccccc2)CCC3)cc1,IC50,[12],0.03 µM
same,IC50,[10],10 µM
same,IP,[4],25%
Cc1ccc(-c2cn3c(c2-c2ccccc2)CCC3)s1,IP,[3],0%
same,IC50,[12],1.8 µM
same,IP,[4],0%
COc1ccc2c(c1)c(CC(=O)O)c(C)n2C(=O)c1ccc(Cl)cc1 [INDOMETHACIN],UI,[16],14
O=C(c1ccccc1)c1ccc2n1CC[C@H]2C(=O)O,ED50,Rattus norvegicus [5],4 mg/kg
same,IC50,[6],> 100 µM
same,IC50,[7],> 100 µM
c1ccc(-c2c(-c3ccco3)cn3c2CCC3)cc1,IC50,[10],10 µM
same,IP,[4],20%
Brc1ccc(-c2cn3c(c2-c2ccccc2)CCC3)s1,IC50,[10],8.4 µM
same,IP,[4],25%
Cc1ccc(NCC2Cn3cccc3C2=O)cc1 (configuration not stated),UI,[17],0
same,Drug excretion,[18],28%
same,Drug excretion,[19],60%
same,Drug excretion,[20],12%
CS(=O)(=O)Nc1ccc(-c2cn3c(c2-c2ccccc2)CCC3)cc1,IC50,[12],3.6 µM
same,IC50,[10],3.4 µM
same,IP,[4],10%
Cc1ccccc1NC(=O)c1c(N)c(C#N)c2n1CCC2,UI,[13],11.3
same,inhibition (INH),Rattus norvegicus [14],31.6%
